Measurements as given in publication PMC11462627, “SAL0114: a novel deuterated dextromethorphan-bupropion combination with improved antidepressant efficacy and safety profile” (Frontiers in Pharmacology, 2024).
Read-outs that look alike come from different tables or passages of the source.

How the values were obtained:
C57BL/6J mice = assay: Ammonia-induced cough mouse model; format: in vivo; details: oral
Method: Antitussive effects were investigated using a classical mouse cough model induced by ammonia liquor, with some modifications ([Jiang et al., 2014]; [Adejayan et al., 2019]). An ammonia-induced cough model in male C57BL/6J mice was used to evaluate the antitussive effects using a two-step approach. The initial screening phase aimed to identify the mice with consistent and pronounced cough responses. Individual mice were exposed to 0.2 mL of 13% ammonium hydroxide solution in 500 mL glass vials. A trained observer measured the latency period and recorded the number of coughs over a 3-min period post-exposure. […] Following a 24-h recovery period, 70 eligible mice were randomly allocated to seven treatment groups (n = 10 per group) for the compound evaluation phase. […] All compounds were administered orally at a volume of 10 mL/kg. At 0.5 h post-administration, each mouse was re-exposed to 0.2 mL of 13% ammonia in a 500 mL glass jar for 1 min. Subsequently, the trained observer recorded the number of coughs over a 3-min period following removal from the jar. […] All experimental procedures were conducted in strict compliance with guidelines approved by the Institutional Animal Care and Use Committee of Shenzhen Salubris Pharmaceuticals Co., Ltd., ensuring adherence to ethical standards in animal research. A P value of less than 0.05 was considered statistically significant for comparisons between groups.

ICR mice [1] = assay: Tail suspension test; format: in vivo; details: TST, oral, 1 h after administration, deDM 10 and 18 mg/kg, BUP 50 mg/kg, deDM + BUP 10 + 50 and 18 + 50 mg/kg
Method: The TST was adapted from the behavioral despair test described by Nguyen et al. ([Nguyen et al., 2017]), with some modifications. […] All compounds were administered orally via gavage at a volume of 10 mL/kg body weight, with the vehicle group receiving an equivalent volume of saline. One hour after administration, mice underwent a tail suspension test (TST). For the TST, each mouse was suspended by its tail, with adhesive tape attached 2 cm from the tail tip and secured to a metal rod. Care was taken to ensure a minimum distance of 15 cm between the suspended animal and the surrounding objects. The test was performed using the ANY-maze version 4.63 video tracking program (Stoelting Co., Wood Dale, IL, United States) for a total duration of 6 min. The initial 2 min served as an acclimatization period and were not scored. The immobility time during the subsequent 4 min was measured using the same software. Immobility was defined as mouse hanging passively and motionless. The ANY-Maze software parameters were set as follows: acclimatization period = 120 s, test duration = 240 s, minimum immobility time = 2 s, and immobility sensitivity = 75%. […]

Sprague-Dawley rats = assay: Reserpine-induced hypothermia in rats; format: in vivo; details: reserpine 4 mg/kg i.p. rats, oral, 30 min after treatment; BUP 40 mg/kg, deDM 5 and 10 mg/kg, deDM + BUP 5 + 40 and 10 + 40 mg/kg
Method: A reserpine-induced hypothermia test was performed according to the method described by Rojas-Corrales et al. ([Rojas-Corrales et al., 2004]; [Dhamija et al., 2017]), with some modifications. 80 male Sprague-Dawley rats were administered an intraperitoneal injection of reserpine (4 mg/kg). 18 h after the injection, rectal temperatures were measured using a rectal probe connected to a thermometer (MC-347, Omron Healthcare, Dalian, China). Rats with body temperatures not exceeding 34.5°C were considered successfully modeled. […] An additional group of ten rats not treated with reserpine served as the normal control. After the group assignment, the second phase of compound administration was initiated. The normal and model control groups received oral saline (10 mL/kg), whereas the other groups received their respective compounds orally at the specified doses, all in an equivalent volume (10 mL/kg). Rectal temperatures were measured 30 min after treatment to assess the effect of compounds in each group on the reserpine-induced hypothermia model. All experimental procedures were conducted in strict accordance with guidelines approved by the Institutional Animal Care and Use Committee of Shenzhen Salubris Pharmaceuticals Co., Ltd. A P value of less than 0.05 was considered statistically significant for comparisons between groups.

ICR mice [2] = assay: Forced swim test; format: in vivo; details: FST, oral, 1 h after administration, deDM 10 and 18 mg/kg, BUP 50 mg/kg, deDM + BUP 10 + 50 and 18 + 50 mg/kg
Method: The mouse forced swim test was performed in a way similar to that published previously by Nguyen et al. ([Nguyen et al., 2017]) with some modifications. […] All compounds were administered orally via gavage at a volume of 10 mL/kg body weight, with the vehicle group receiving an equivalent volume of saline. 1 h after administration, mice underwent the forced swim test (FST), a widely used behavioral assay for evaluating antidepressant-like effects. Each mouse was individually placed in a transparent cylindrical tank filled with water (depth: 18 cm, temperature: 25°C ± 1°C) for a 6-min test session. The initial 2 min served as the acclimatization period and was not scored. Floating time during the subsequent 4 min was measured using ANY-Maze Version 4.63 video tracking software (Stoelting Co., Illinois, United States). Floating was defined as the minimum movement required to keep the animal’s head above water. Floating time (%) = floatting time(s)/240 s. The ANY-Maze software parameters were set as follows: acclimatization period = 120 s, test duration = 240 s, minimum immobility time = 2 s, and immobility sensitivity = 75%. To maintain consistent conditions, water was changed between the animals. […]

[3] = Metabolic stability in liver microsomes; format: in vitro ADME, human
Method: All incubations were performed in duplicates. Verapamil was used as the positive control. After pre-warming the mixture for 5 min, reactions were initiated by the addition of NADPH (1 mM). Samples (30 μL) were taken at 0, 20, and 60 min, and the reaction was immediately terminated by adding 150 μL acetonitrile containing an analytical internal standard (IS). Samples were centrifuged at 4,000 rpm for 5 min in a centrifuge (5810R, Eppendorf, Germany), and the supernatant was analyzed by LC-MS/MS (Thermo Scientific TSQ Quantum Ultra, United States).
The in vivo clearance values (CLint = CLint, in vitro × (mg protein/g liver weight) × (g liver weight/kg body weight)) of humans were predicted by CLint, in vitro values using physiologically-based scaling factors, hepatic microsomal protein concentrations (48.8 mg protein/g liver), and liver weights (25.7 g/kg body weight). The in vivo hepatic clearance (CLH= (Q × CLint)/(Q + CLint)) was then calculated by using CLint and hepatic blood flow, Q (20.7 mL·min^−1·kg^−1 in humans).

[4] = Pharmacokinetics in male SD rat after oral administration; format: in vivo; details: male, SD, rat, in vivo, po, 50 mg/kg
Description: Results expressed as mean, n=3 per group

[5] = target: T1, norepinephrine transporter (Homo sapiens, UniProt P23975); assay: Norepinephrine transporter (NET) radioligand binding (3H-Nisoxetine)
T1 construct: purchased PerkinElmer, Inc RBHNETM400UA
T1 sequence (P23975 whole entry): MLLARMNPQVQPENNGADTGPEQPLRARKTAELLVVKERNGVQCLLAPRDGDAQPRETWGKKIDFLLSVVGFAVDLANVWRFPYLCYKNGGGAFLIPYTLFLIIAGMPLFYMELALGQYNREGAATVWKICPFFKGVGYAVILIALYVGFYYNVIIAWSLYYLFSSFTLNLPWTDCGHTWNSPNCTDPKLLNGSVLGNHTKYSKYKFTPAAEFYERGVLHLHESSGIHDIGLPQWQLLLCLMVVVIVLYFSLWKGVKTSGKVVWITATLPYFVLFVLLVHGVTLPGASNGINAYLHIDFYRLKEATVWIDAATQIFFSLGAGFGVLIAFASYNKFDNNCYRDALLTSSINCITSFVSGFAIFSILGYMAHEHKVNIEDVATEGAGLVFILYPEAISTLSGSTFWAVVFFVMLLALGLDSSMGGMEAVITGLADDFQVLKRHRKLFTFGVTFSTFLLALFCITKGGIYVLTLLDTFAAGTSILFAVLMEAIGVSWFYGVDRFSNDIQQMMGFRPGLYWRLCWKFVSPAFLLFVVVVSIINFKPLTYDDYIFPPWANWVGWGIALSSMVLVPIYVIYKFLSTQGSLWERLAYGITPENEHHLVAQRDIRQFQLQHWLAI
Method: The experiments were carried out in the Pharmaron laboratory, and the methods were referenced from previous studies with modifications ([Bylund and Toews, 1993]; [Galli et al., 1995]). Competitive binding of the compound and ^3H-Nisoxetine to NETs was assessed using a radioligand binding method. The ability of the compound to competitively bind to NET (Ki) was determined by detecting the signal value of the radioligand bound to the transporter using a Microbeta instrument (2450, Perkin Elmer, Massachusetts, United States).

[6] = Pharmacokinetic study in C57BL/6 mice; format: in vivo; details: male, C57BL/6, mouse, plasma, po, 20 mg/kg
Description: The assay was built in a way similar to that previously published by [Beconi et al. (2011)] with some modifications. A total of 36 male C57BL/6 mice, weighing between 20 and 22 g, were randomly divided into four groups of nine mice each. […] Mice in each group were numbered 1–9. Following the oral administration of the compounds in each group, blood was collected from the jugular vein at the specified time points, with three mice at each time point and two to three times for each mouse. 1–3 numbered mice had blood collection time points of 0.25, 1.5, and 7 h after the administration of the compounds, 4–6 numbered mice had blood collection time points of 0.5, 2, and 24 h after the administration of the compounds, and 7–9 numbered mice had blood collection time points of 1 and 5 h after the administration of the compounds. All blood samples were collected without anesthesia, and blood was collected in heparinized EP tubes. Plasma was obtained by centrifuging the blood at 10,000 rpm for 2 min at 4°C.

Sigma-1 receptor = target: T2, Sigma-1 receptor (Homo sapiens, UniProt Q99720); assay: Sigma 1 receptor radioligand binding (3H-pentazocine, Jurkat cells)
T2 construct: to the Sigma-1 receptor (Sigma-1R) of human-derived Jurkat cells; host or cells: Jurkat cells
T2 sequence (Q99720 whole entry): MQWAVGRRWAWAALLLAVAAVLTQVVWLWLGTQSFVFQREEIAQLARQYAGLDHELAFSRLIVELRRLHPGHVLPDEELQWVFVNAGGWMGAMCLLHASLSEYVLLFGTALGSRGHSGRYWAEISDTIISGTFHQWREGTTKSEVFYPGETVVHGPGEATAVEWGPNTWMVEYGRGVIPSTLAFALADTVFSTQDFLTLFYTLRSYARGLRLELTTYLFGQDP
Method: The experiments were carried out in the Eurofins Discovery laboratory, and the methods were referenced from previous studies with modifications ([Prasad et al., 1999]). Competitive binding of the samples and ^3H-pentazocine to the Sigma-1 receptor (Sigma-1R) of human-derived Jurkat cells was assessed using a radioligand binding method. The ability of the compound to bind competitively to the Sigma-1 receptor (Ki) was determined by detecting the signal value of the radioligand bound to the receptor.

nAchR α3β4 = target: T3, nAchR α3β4 (Homo sapiens, UniProt P30926+P32297); assay: nAchR α3β4 radioligand binding (125I-epibatidine, recombinant CHO-K1 cells)
T3 construct: host or cells: CHO-K1
T3 sequence (P32297 32-505): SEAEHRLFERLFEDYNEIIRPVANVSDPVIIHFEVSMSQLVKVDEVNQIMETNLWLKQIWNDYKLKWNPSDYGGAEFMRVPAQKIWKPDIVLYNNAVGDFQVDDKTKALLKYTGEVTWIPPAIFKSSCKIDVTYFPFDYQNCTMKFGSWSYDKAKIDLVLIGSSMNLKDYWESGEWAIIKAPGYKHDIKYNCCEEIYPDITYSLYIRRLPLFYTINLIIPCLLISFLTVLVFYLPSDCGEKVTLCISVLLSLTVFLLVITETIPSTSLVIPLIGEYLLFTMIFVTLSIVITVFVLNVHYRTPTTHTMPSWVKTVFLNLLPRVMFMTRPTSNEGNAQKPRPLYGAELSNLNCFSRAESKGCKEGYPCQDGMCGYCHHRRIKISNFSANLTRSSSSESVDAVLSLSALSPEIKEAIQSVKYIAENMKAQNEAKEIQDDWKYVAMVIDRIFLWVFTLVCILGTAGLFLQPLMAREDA
T3 sequence (P30926 22-498): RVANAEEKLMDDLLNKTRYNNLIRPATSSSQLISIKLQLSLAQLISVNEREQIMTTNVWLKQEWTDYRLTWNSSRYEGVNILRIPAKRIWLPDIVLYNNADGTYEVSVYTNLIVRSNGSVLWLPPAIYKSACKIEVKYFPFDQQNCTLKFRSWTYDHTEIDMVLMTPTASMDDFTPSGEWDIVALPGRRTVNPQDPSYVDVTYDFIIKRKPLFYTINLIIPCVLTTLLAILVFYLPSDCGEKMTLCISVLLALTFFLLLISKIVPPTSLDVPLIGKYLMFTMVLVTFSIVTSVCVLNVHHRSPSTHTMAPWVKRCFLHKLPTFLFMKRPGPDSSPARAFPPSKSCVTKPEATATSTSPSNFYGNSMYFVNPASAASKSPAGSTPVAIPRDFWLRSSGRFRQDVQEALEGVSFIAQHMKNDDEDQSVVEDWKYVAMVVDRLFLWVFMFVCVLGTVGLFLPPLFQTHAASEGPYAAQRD
Method: The experiments were carried out in the Eurofins Discovery laboratory, and the methods were referenced from previous studies with modifications ([Michelmore et al., 2002]; [Zaveri et al., 2010]). The competitive binding of the samples and ^125I-epibatidine to the nAchR α3β4 in human recombinant CHO-K1 cells was assessed using a radioligand binding method. The ability of the compound to competitively bind to nAchR α3β4 (Ki) was determined by detecting the signal value of the radioligand bound to the receptor.

NMDA receptor = details: for Ki: read-out: Ki, NMDA receptor, 3H-MK801 competition, rat brain membranes, mean, n = 4
Method: Membrane preparation was performed as previously described ([Werling et al., 2007]). Briefly, the brains of male Sprague-Dawley rats were dissected for tissue collection. The tissue was then homogenized in ice-cold extraction solution and centrifuged at 40,000 × g for 10 min (minute). The supernatant was discarded, the precipitate was resuspended in extraction solution, and the above steps were repeated two times. Finally, the precipitate was resuspended in a 10-fold volume of resuspension solution and stored at −80°C. Protein concentration was determined using a PierceTM BCA Protein Assay Kit. The competitive binding of the compound and ^3H-MK801 to the NMDA receptor was evaluated utilizing the filtration binding method. This method involves washing unbound radioligands and subsequently quantifying the signal values of the radioligands bound to the NMDA receptor using a Microbeta instrument (catalog number: 2450, Perkin Elmer, Massachusetts, United States).

serotonin transporter = target: T4, serotonin transporter (Homo sapiens, UniProt P31645); assay: biochemical; format: binding; details: for Ki: radioligand competition, mean, n = 2
T4 construct: purchased PerkinElmer, Inc RBHSTM400UA
T4 sequence (P31645 whole entry): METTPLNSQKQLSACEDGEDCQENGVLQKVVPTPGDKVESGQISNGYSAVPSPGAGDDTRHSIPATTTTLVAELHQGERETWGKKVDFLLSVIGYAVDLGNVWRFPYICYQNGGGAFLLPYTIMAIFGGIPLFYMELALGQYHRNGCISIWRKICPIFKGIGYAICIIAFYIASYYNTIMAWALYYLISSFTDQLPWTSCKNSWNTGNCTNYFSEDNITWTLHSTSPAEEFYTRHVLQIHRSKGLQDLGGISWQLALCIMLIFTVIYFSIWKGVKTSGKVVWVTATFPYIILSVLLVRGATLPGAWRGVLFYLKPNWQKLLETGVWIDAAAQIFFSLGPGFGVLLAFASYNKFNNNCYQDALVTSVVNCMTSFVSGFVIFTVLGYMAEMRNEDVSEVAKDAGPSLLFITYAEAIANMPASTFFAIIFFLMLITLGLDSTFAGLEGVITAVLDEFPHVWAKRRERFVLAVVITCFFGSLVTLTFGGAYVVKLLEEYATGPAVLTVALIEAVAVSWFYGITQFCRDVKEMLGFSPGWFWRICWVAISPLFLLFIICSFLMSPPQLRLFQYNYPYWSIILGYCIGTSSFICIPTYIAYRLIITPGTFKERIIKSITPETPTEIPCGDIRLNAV
Method: The experiments were carried out in the Pharmaron laboratory, and the methods were referenced from previous studies with modifications ([Yang and Gouaux, 2021]). Competitive binding of the samples and ^3H-hydroxytryptamine creatine sulfate on SERT was assessed using a radioligand binding method. The ability of the compound to competitively bind to SERT (Ki) was determined by detecting the signal value of the radioligand bound to the transporter using a Microbeta instrument (2,450, Perkin Elmer, Massachusetts, United States).

Compound: CC(NC(C)(C)C)C(=O)c1cccc(Cl)c1 (centres unmarked) [BUP, bupropion]
- cough inhibition rate (C57BL/6J mice; 40 mg/kg, 0.5 h post-administration): 19.5%
- cough inhibition compared with the vehicle group (C57BL/6J mice; deDM 5 and 10 mg/kg, BUP 40 mg/kg, deDM + BUP 5 + 40 and 10 + 40 mg/kg): neither deDM nor BUP significantly inhibited cough
- immobilization time compared to the vehicle group (ICR mice [1]): significantly reduced the immobilization time
- body temperature compared with the model (vehicle) group (Sprague-Dawley rats): significantly increased the body temperature
- floating time compared to the vehicle group (ICR mice [2]): significantly reduced the floating time

Compound: COc1ccc2c(c1)[C@]13CCCC[C@@H]1[C@H](C2)N(C)CC3 [DM, dextromethorphan]
- half-life at 1 μM ([3]; 1 μM, 0.5 mg/mL human liver microsomes, NADPH 1 mM, 37°C, mean, n = 2): 1.24 h
- CLint scaled at 1 μM ([3]; human, liver microsomes, read-out: CLint, in vitro): 23.4 mL/min/kg
- CLH ([3]; in vivo hepatic clearance predicted from CLint and hepatic blood flow 20.7 mL/min/kg, human): 11.0 mL/min/kg
- AUC(0-t) [4]: 194 ng·h/mL
- Cmax ([4]; read-out: Cmax): 56 ng/mL
- Ki [5]: 20500 nM
- AUC(0-t) [6]: 184 ± 168 ng·h/mL
- Cmax ([6]; read-out: Cmax): 74.9 ± 49 ng/mL
- Ki (Sigma-1 receptor): 1670 nM

Compound: CN1CC[C@@]23CCCC[C@@H]2[C@@H]1Cc1ccc(O)cc13 [DX, dextrorphan, reference compound]
- Ki (nAchR α3β4): 9980 nM
- higher affinity for NMDA receptors compared to DM (NMDA receptor; ratio of Ki values): 7 fold
- Ki (NMDA receptor): 220 nM
- Ki (serotonin transporter): 140 nM
- lower affinity for SERT compared to DM (serotonin transporter; ratio of Ki values): 17 fold
- Ki [5]: 5670 nM
- Ki (Sigma-1 receptor): 2850 nM

Compound: deuterated dextrorphan [deDX]
- Ki (nAchR α3β4; 125I-epibatidine competition, human recombinant CHO-K1 cells, mean, n = 2, read-out: Ki, α3β4 nicotinic acetylcholine receptors): 15000 nM
- Ki (NMDA receptor): 420 nM
- Ki (serotonin transporter): 120 nM
- Ki ([5]; 3H-Nisoxetine competition, mean, n = 2, read-out: Ki, norepinephrine transporter): 7930 nM
- Ki (Sigma-1 receptor; 3H-pentazocine competition, human-derived Jurkat cells, mean, n = 2, read-out: Ki, Sigma-1 receptor): 2860 nM
